Assays:
A549 xenografts = test: Pharmacodynamic biomarkers by immunohistochemistry after IR; assay type: in vivo, mice; details: single dose AZD7648 100 mg kg−1, 1 h before IR 6 Gy
[1] = test system: FaDu ATM KO xenograft model; test: Pharmacodynamic biomarkers by western blot; assay type: in vivo, mice; details: 30 min after 75 mg kg−1 dose of AZD7648
Description: (1 picture or pasted object on this page, not shown here)
treatment groups when mean tumour volume reached ~0.2 cm 3.

[2] = test system: UWB1.289 and DLD1 BRCA2 KO cells; test: Live/Dead assay, AZD7648 monotherapy, BRCA1/BRCA2 isogenic pairs; assay type: cell-based; details: 7 days treatment
Description: (§1) by Live/Dead assay in A) UWB1.289 and UWB1.289 complemented with wild-type BRCA1 (UWB1.289 + BRCA1), DLD1 and DLD1 with the BRCA2 gene knocked out (DLD1 BRCA2 KO), and B) FaDu and A549 cells with the ATM gene knocked out (ATM KO) compared with their WT counterpart. Graphs represent percentage viable cells ± SD following 7 days’ treatment relative to DMSO vehicle-treated controls from one representative experiment of at least three independent experiments. Tables describe […]
(§2) and A549 ATM KO cells compared with their WT counterparts following 7 days’ treatment.
(§3) Mean pGI50 (–log [GI50]) ± SEM, geometric mean GI50, number of experimental repeats (n) and 95% confidence interval are described. C) Colony formation assay was performed on FaDu and A549 ATM KO and WT cells treated with increasing concentrations of olaparib. Graphs represent percentage surviving fraction of colonies ± SD following 10– 14 days’ treatment relative to DMSO vehicle-treated control from one representative experiment of three independent experiments. […] Mean pIC50
(§4) ± SEM, geometric mean IC50, number of experimental repeats (n) and 95% confidence […]
(§5) 8–14 days or with increasing concentrations of olaparib. Cell colonies were washed with […]
(§6) Mean surviving colonies were calculated from three technical replicates. […]
(§7) before survival fraction was calculated. […]
(§8) and quantified using the Acumen ® Cellista (TTP Labtech). […]

[3] = test system: FaDu and A549 ATM KO cells; test: Live/Dead assay, AZD7648 monotherapy, ATM KO versus WT isogenic pairs; assay type: cell-based, human; details: AZD7648 single agent
Description: as §1, §2, §3, §4, §5, §6, §7, §8

A549 cells = test: Colony formation assay with ionizing radiation; assay type: cell-based, human
Experimental: (§9) page 32: […] Plates were then washed 2x with PBS, incubated with 20 µL of antibody solution containing […] incubated at RT for 2 hours. Plates were washed 3x with PBS before imaging on the CV7000 high-content imaging platform (Yokogawa). Following image acquisition, images were exported to the ColumbusTM image data storage and analysis system (Perkin Elmer). Optimized image algorithms were used to evaluate phenotypic response s using nuclear staining with Hoechst (cell cycle, micronuclei, nuclear fragmentation ), as well as to quantify the response of DNA damage response markers (foci numbers and total signal […] SDS-PAGE and Western blotting of samples Protein lysates were generated by scraping cells in radioimmunoprecipitation assay […] and protease and phosphatase inhibitor tablets (Roche) following compound treatments at indicated time points. Protein concentration was determined using the BCA protein assay kit (ThermoFisher). Proteins were separated by SDS -PAGE on NuPAGE® 4-12% […] membranes using the iBlot ® dry blotting system (ThermoFisher). Membranes were […] and incubated with primary antibody overnight at 4°C. Membranes were then washed with TBS-T and incubated with HRP-conjugated anti-rabbit or anti-mouse antibodies for 1 hour at RT. Proteins were detected by incubating membranes with SuperSignalTM Dura extended-duration substrate (ThermoFisher) and visualiz ed using the G:BOX ChemiGenius imaging system (Syngene). Band intensities were quantified using Syngene Genetools software. For analysis o f in vivo samples, a two-sided t-test was performed on logged data assuming unequal variance. A list of all antibodies used in this study can be found in Supplementary Table 5. Colony formation assay Cells were plated at low density into six-well plates in 3 mL medium (500 cells for A549, NCI-H1299 and FaDu WT, 4000 cells for FaDu ATM […]) and incubated overnight. Cell plating numbers were adjusted for higher IR doses to compensate for cell kill. […] Cell colonies were washed with […] acetic acid for >10 minutes. Excess stain was removed by washing with water. Surviving colonies (>50 cells) were counted using the GelCountTM colony counter (Oxford Optronix). Mean surviving colonies were calculated from three technical replicates. […] fraction. […] 33

NCI-H1299 cells = test: Colony formation assay with ionizing radiation; assay type: cell-based, human; details: for DEF37 Mean / DEF37 n1 / DEF37 n2: NCI-H1299
Experimental: as §9

`Cc1cc2ncnn2cc1Nc1ncc2c(n1)n(C1CCOCC1)c(=O)n2C` [AZD7648] was tested, and the “IR-induced increases in pDNA-PKcs Ser2056 and γH2AX” value (A549 xenografts) was “abolished”, the “reduction of pDNA-PKcs Ser2056, γH2AX and pRPA32 Ser4/Ser8” value [1] was ~ 80% and the “effect of loss of BRCA1 or BRCA2 on sensitivity to monotherapy” value [2] was “did not sensitize”. The “greater sensitivity of ATM KO cells compared with isogenic WT cells” value [3] was over 10 fold, the “DEF37 Mean” value (A549 cells; AZD7648 0.025 μM + IR) was 1.2 and the “DEF37 n1” value (A549 cells; AZD7648 0.025 μM + IR) was 1.3. For the same compound, the “DEF37 n2” value (A549 cells; AZD7648 0.025 μM + IR) was 1.2, the “DEF37 Mean” value (A549 cells; AZD7648 0.1 μM + IR) was 1.7 and the “DEF37 n1” value (A549 cells; AZD7648 0.1 μM + IR) was 1.4. For the same compound, the “DEF37 n2” value (A549 cells; AZD7648 0.1 μM + IR) was 1.9, the “Mean DEF37” value (A549 cells; AZD7648 1 μM + IR (Fig. 1e)) was 5.1 and the “DEF37 Mean” value (A549 cells; AZD7648 1.21 μM + IR) was 5.1. The “DEF37 n1” value (A549 cells; AZD7648 1.21 μM + IR) was 3.2, the “DEF37 n2” value (A549 cells; AZD7648 1.21 μM + IR) was 7.0 and the “Mean DEF37” value (NCI-H1299 cells; H1299, AZD7648 1 μM + IR (Fig. 1e)) was 7.4. For the same compound, the “DEF37 Mean” value (NCI-H1299 cells; AZD7648 0.025 μM + IR) was 1.3, the “DEF37 n1” value (NCI-H1299 cells; AZD7648 0.025 μM + IR) was 1.2 and the “DEF37 n2” value (NCI-H1299 cells; AZD7648 0.025 μM + IR) was 1.3. The “DEF37 Mean” value (NCI-H1299 cells; AZD7648 0.1 μM + IR) was 2.5, the “DEF37 n1” value (NCI-H1299 cells; AZD7648 0.1 μM + IR) was 2.9 and the “DEF37 Mean” value (NCI-H1299 cells; AZD7648 1.21 μM + IR) was 7.4. The “DEF37 n1” value (NCI-H1299 cells; AZD7648 1.21 μM + IR) was 7.9 and the “DEF37 n2” value (NCI-H1299 cells; AZD7648 1.21 μM + IR) was 7.0.
